Test results as given in US20230000813A1, “COMPOUND FOR THE TREATMENT OF BOVINE OR SWINE RESPIRATORY DISEASE” (Intervet Inc., priority 2016, published 2023).
Values after ≈ are worked out from the molar mass of the structure shown.

What follows are molecules tested on Mannheimia haemolytica MH 13065 (XB0446-6003.9, BRD field isolate) (assay: MIC, broth-microdilution (CLSI VET01-A4)). Conditions: not given.
Format: cell-based
How it was run: (§1)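 MIC read by eye as lowest compound concentration without visible growth (no turbidity), interpreted per CLSI VET01-S3. Doubling-dilution broth-microdilution trays, run according to CLSI VET01-A4.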

| Compound | MIC |
| --- | --- |
| CC(C)C(NC(=O)c1ccc(C#Cc2ccc(CNCc3cccnc3)cc2)cc1)C(=O)NO (centres unmarked) [Compound 287] | 0.8 µM (≈ 0.365 µg/mL) |
| CSC(C)(C)[C@H](NC(=O)c1ccc(C#Cc2ccc(CNCC#N)cc2)cc1)C(=O)NO [Compound 592] | 0.8 µM (≈ 0.36 µg/mL) |
| Cc1ccc(CNCc2ccc(C#Cc3ccc(C(=O)N[C@H](C(=O)NO)[C@@H](C)O)cc3)cc2)cc1 [Compound 261] | 0.4 µM (≈ 0.189 µg/mL) |
| CC(C)(O)C(NC(=O)c1ccc(C#Cc2ccc(CNCc3ccccc3)cc2)cc1)C(=O)NO (centres unmarked) [Compound 569] | 0.4 µM (≈ 0.189 µg/mL) |
| CSC(C)(C)[C@H](NC(=O)c1ccc(C#Cc2ccc(CNCc3cccs3)cc2)cc1)C(=O)NO [Compound 597] | 0.8 µM (≈ 0.406 µg/mL) |

The molecules below were run on Mannheimia haemolytica MH 13093 (XB0472-6014.1, BRD field isolate) (assay: MIC, broth-microdilution (CLSI VET01-A4)). Conditions: not given.
Format: cell-based
How it was run: as §1

| Compound | MIC |
| --- | --- |
| CC(C)C(NC(=O)c1ccc(C#Cc2ccc(CNCc3cccnc3)cc2)cc1)C(=O)NO (centres unmarked) [Compound 287] | 0.8 µM (≈ 0.365 µg/mL) |
| CSC(C)(C)[C@H](NC(=O)c1ccc(C#Cc2ccc(CNCC#N)cc2)cc1)C(=O)NO [Compound 592] | 0.4 µM (≈ 0.18 µg/mL) |
| Cc1ccc(CNCc2ccc(C#Cc3ccc(C(=O)N[C@H](C(=O)NO)[C@@H](C)O)cc3)cc2)cc1 [Compound 261] | 0.8 µM (≈ 0.377 µg/mL) |
| CC(C)(O)C(NC(=O)c1ccc(C#Cc2ccc(CNCc3ccccc3)cc2)cc1)C(=O)NO (centres unmarked) [Compound 569] | 0.4 µM (≈ 0.189 µg/mL) |
| CSC(C)(C)[C@H](NC(=O)c1ccc(C#Cc2ccc(CNCc3cccs3)cc2)cc1)C(=O)NO [Compound 597] | 0.8 µM (≈ 0.406 µg/mL) |

What follows are molecules tested on Pasteurella multocida PM 12080 (IV102277-0093, BRD field isolate) (assay: MIC, broth-microdilution (CLSI VET01-A4)). Conditions: Pasteurella multocida PM 12080.
Format: cell-based
How it was run: (§2)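 MIC values follow CLSI VET01-S3 interpretation, scored as the lowest concentration free of visible turbidity within a doubling dilution series in microdilution trays.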

| Compound | MIC PM 12080 |
| --- | --- |
| Cc1ccc(CNCc2ccc(C#Cc3ccc(C(=O)N[C@H](C(=O)NO)[C@@H](C)O)cc3)cc2)cc1 [Compound 261] | <=0.1 μM |
| CC(C)(O)C(NC(=O)c1ccc(C#Cc2ccc(CNCc3ccccc3)cc2)cc1)C(=O)NO (centres unmarked) [Compound 569] | <=0.1 μM |
| CSC(C)(C)[C@H](NC(=O)c1ccc(C#Cc2ccc(CNCc3cccs3)cc2)cc1)C(=O)NO [Compound 597] | <=0.1 μM |

Same assay, conditions: Pasteurella multocida PM 12080; read-out: MIC PM 12080

| Compound | MIC |
| --- | --- |
| CC(C)C(NC(=O)c1ccc(C#Cc2ccc(CNCc3cccnc3)cc2)cc1)C(=O)NO (centres unmarked) [Compound 287] | 0.2 µM (≈ 0.0913 µg/mL) |
| CSC(C)(C)[C@H](NC(=O)c1ccc(C#Cc2ccc(CNCC#N)cc2)cc1)C(=O)NO [Compound 592] | 0.2 µM (≈ 0.0901 µg/mL) |

These molecules were tested on Pasteurella multocida PM 6267 (P 2225 (L386), reference strain, mouse infection strain) (assay: MIC, broth-microdilution (CLSI VET01-A4)). Conditions: Pasteurella multocida PM 6267.
Format: cell-based
How it was run: as §2

| Compound | MIC PM 6267 |
| --- | --- |
| CC(C)C(NC(=O)c1ccc(C#Cc2ccc(CNCc3cccnc3)cc2)cc1)C(=O)NO (centres unmarked) [Compound 287] | <=0.1 μM |
| CSC(C)(C)[C@H](NC(=O)c1ccc(C#Cc2ccc(CNCC#N)cc2)cc1)C(=O)NO [Compound 592] | <=0.1 μM |
| Cc1ccc(CNCc2ccc(C#Cc3ccc(C(=O)N[C@H](C(=O)NO)[C@@H](C)O)cc3)cc2)cc1 [Compound 261] | <=0.1 μM |
| CC(C)(O)C(NC(=O)c1ccc(C#Cc2ccc(CNCc3ccccc3)cc2)cc1)C(=O)NO (centres unmarked) [Compound 569] | <=0.1 μM |
| CSC(C)(C)[C@H](NC(=O)c1ccc(C#Cc2ccc(CNCc3cccs3)cc2)cc1)C(=O)NO [Compound 597] | <=0.1 μM |

The molecules below were run on Mannheimia haemolytica MH 10720 (154, BRD field isolate) (assay: MIC, broth-microdilution (CLSI VET01-A4)). Conditions: Mannheimia haemolytica MH 10720.
Format: cell-based
How it was run: as §2

| Compound | MIC MH 10720 |
| --- | --- |
| CC(C)C(NC(=O)c1ccc(C#Cc2ccc(CNCc3cccnc3)cc2)cc1)C(=O)NO (centres unmarked) [Compound 287] | <=0.1 μM |
| CSC(C)(C)[C@H](NC(=O)c1ccc(C#Cc2ccc(CNCC#N)cc2)cc1)C(=O)NO [Compound 592] | <=0.1 μM |
| Cc1ccc(CNCc2ccc(C#Cc3ccc(C(=O)N[C@H](C(=O)NO)[C@@H](C)O)cc3)cc2)cc1 [Compound 261] | <=0.1 μM |
| CC(C)(O)C(NC(=O)c1ccc(C#Cc2ccc(CNCc3ccccc3)cc2)cc1)C(=O)NO (centres unmarked) [Compound 569] | <=0.1 μM |
| CSC(C)(C)[C@H](NC(=O)c1ccc(C#Cc2ccc(CNCc3cccs3)cc2)cc1)C(=O)NO [Compound 597] | <=0.1 μM |

What follows are molecules tested on Mannheimia haemolytica MH 12587 (1071, BRD field isolate, macrolide-resistance: erm+, E+) (assay: MIC, broth-microdilution (CLSI VET01-A4)). Conditions: Mannheimia haemolytica MH 12587, macrolide-resistant.
Format: cell-based
How it was run: as §2

| Compound | MIC MH 12587 |
| --- | --- |
| CC(C)C(NC(=O)c1ccc(C#Cc2ccc(CNCc3cccnc3)cc2)cc1)C(=O)NO (centres unmarked) [Compound 287] | 0.8 µM (≈ 0.365 µg/mL) |
| CSC(C)(C)[C@H](NC(=O)c1ccc(C#Cc2ccc(CNCC#N)cc2)cc1)C(=O)NO [Compound 592] | 0.8 µM (≈ 0.36 µg/mL) |
| Cc1ccc(CNCc2ccc(C#Cc3ccc(C(=O)N[C@H](C(=O)NO)[C@@H](C)O)cc3)cc2)cc1 [Compound 261] | 0.8 µM (≈ 0.377 µg/mL) |
| CC(C)(O)C(NC(=O)c1ccc(C#Cc2ccc(CNCc3ccccc3)cc2)cc1)C(=O)NO (centres unmarked) [Compound 569] | 0.8 µM (≈ 0.377 µg/mL) |
| CSC(C)(C)[C@H](NC(=O)c1ccc(C#Cc2ccc(CNCc3cccs3)cc2)cc1)C(=O)NO [Compound 597] | 1.6 µM (≈ 0.812 µg/mL) |

The molecules below were run on Mannheimia haemolytica MH 6374 (ATCC 33396, reference strain) (assay: MIC, broth-microdilution (CLSI VET01-A4)). Conditions: Mannheimia haemolytica MH 6374; read-out: MIC MH 6374.
Format: cell-based
How it was run: as §2

| Compound | MIC |
| --- | --- |
| CC(C)C(NC(=O)c1ccc(C#Cc2ccc(CNCc3cccnc3)cc2)cc1)C(=O)NO (centres unmarked) [Compound 287] | 0.4 µM (≈ 0.183 µg/mL) |
| CSC(C)(C)[C@H](NC(=O)c1ccc(C#Cc2ccc(CNCC#N)cc2)cc1)C(=O)NO [Compound 592] | 0.8 µM (≈ 0.36 µg/mL) |
| Cc1ccc(CNCc2ccc(C#Cc3ccc(C(=O)N[C@H](C(=O)NO)[C@@H](C)O)cc3)cc2)cc1 [Compound 261] | 0.2 µM (≈ 0.0943 µg/mL) |
| CC(C)(O)C(NC(=O)c1ccc(C#Cc2ccc(CNCc3ccccc3)cc2)cc1)C(=O)NO (centres unmarked) [Compound 569] | 0.4 µM (≈ 0.189 µg/mL) |
| CSC(C)(C)[C@H](NC(=O)c1ccc(C#Cc2ccc(CNCc3cccs3)cc2)cc1)C(=O)NO [Compound 597] | 0.8 µM (≈ 0.406 µg/mL) |

Each molecule was assayed on Pasteurella multocida PM 6391 (ATCC 43137, reference strain) (assay: MIC, broth-microdilution (CLSI VET01-A4)). Conditions: Pasteurella multocida PM 6391.
Format: cell-based
How it was run: as §2

| Compound | MIC PM 6391 |
| --- | --- |
| Cc1ccc(CNCc2ccc(C#Cc3ccc(C(=O)N[C@H](C(=O)NO)[C@@H](C)O)cc3)cc2)cc1 [Compound 261] | <=0.1 μM |
| CC(C)(O)C(NC(=O)c1ccc(C#Cc2ccc(CNCc3ccccc3)cc2)cc1)C(=O)NO (centres unmarked) [Compound 569] | <=0.1 μM |

Same assay, conditions: Pasteurella multocida PM 6391; read-out: MIC PM 6391

| Compound | MIC |
| --- | --- |
| CC(C)C(NC(=O)c1ccc(C#Cc2ccc(CNCc3cccnc3)cc2)cc1)C(=O)NO (centres unmarked) [Compound 287] | 0.4 µM (≈ 0.183 µg/mL) |
| CSC(C)(C)[C@H](NC(=O)c1ccc(C#Cc2ccc(CNCC#N)cc2)cc1)C(=O)NO [Compound 592] | 0.2 µM (≈ 0.0901 µg/mL) |
| CSC(C)(C)[C@H](NC(=O)c1ccc(C#Cc2ccc(CNCc3cccs3)cc2)cc1)C(=O)NO [Compound 597] | 0.2 µM (≈ 0.102 µg/mL) |

What follows are molecules tested on Mannheimia haemolytica MH 6357 (M7/2, reference strain, cattle infection strain) (assay: MIC, broth-microdilution (CLSI VET01-A4)). Conditions: Mannheimia haemolytica MH 6357; read-out: MIC MH 6357.
Format: cell-based
How it was run: as §2

| Compound | MIC |
| --- | --- |
| CC(C)C(NC(=O)c1ccc(C#Cc2ccc(CNCc3cccnc3)cc2)cc1)C(=O)NO (centres unmarked) [Compound 287] | 0.4 µM (≈ 0.183 µg/mL) |
| CSC(C)(C)[C@H](NC(=O)c1ccc(C#Cc2ccc(CNCC#N)cc2)cc1)C(=O)NO [Compound 592] | 0.4 µM (≈ 0.18 µg/mL) |
| Cc1ccc(CNCc2ccc(C#Cc3ccc(C(=O)N[C@H](C(=O)NO)[C@@H](C)O)cc3)cc2)cc1 [Compound 261] | 0.2 µM (≈ 0.0943 µg/mL) |
| CC(C)(O)C(NC(=O)c1ccc(C#Cc2ccc(CNCc3ccccc3)cc2)cc1)C(=O)NO (centres unmarked) [Compound 569] | 0.8 µM (≈ 0.377 µg/mL) |
| CSC(C)(C)[C@H](NC(=O)c1ccc(C#Cc2ccc(CNCc3cccs3)cc2)cc1)C(=O)NO [Compound 597] | 0.8 µM (≈ 0.406 µg/mL) |

The molecules below were run on Pasteurella multocida PM 10775 (080130003051, BRD field isolate) (assay: MIC, broth-microdilution (CLSI VET01-A4)). Conditions: Pasteurella multocida PM 10775.
Format: cell-based
How it was run: as §2

| Compound | MIC PM 10775 |
| --- | --- |
| CC(C)C(NC(=O)c1ccc(C#Cc2ccc(CNCc3cccnc3)cc2)cc1)C(=O)NO (centres unmarked) [Compound 287] | <=0.1 μM |
| CSC(C)(C)[C@H](NC(=O)c1ccc(C#Cc2ccc(CNCC#N)cc2)cc1)C(=O)NO [Compound 592] | <=0.1 μM |
| Cc1ccc(CNCc2ccc(C#Cc3ccc(C(=O)N[C@H](C(=O)NO)[C@@H](C)O)cc3)cc2)cc1 [Compound 261] | <=0.1 μM |
| CC(C)(O)C(NC(=O)c1ccc(C#Cc2ccc(CNCc3ccccc3)cc2)cc1)C(=O)NO (centres unmarked) [Compound 569] | <=0.1 μM |
| CSC(C)(C)[C@H](NC(=O)c1ccc(C#Cc2ccc(CNCc3cccs3)cc2)cc1)C(=O)NO [Compound 597] | <=0.1 μM |
